Usually melting point stands for the temperature, or range, at which the solid turns liquid.

For the compound `CC(=Cc1ccc(Oc2ccc(C)nc2)cc1)C(=O)O`, the melting point lay within 211 to 214 °C.

Turning to `COc1ccccc1C1C(=O)Nc2cc(C)c(Cl)cc21` (configuration not stated), the melting point stood at 193 °C.

`ClCCCCOc1ccccc1/C=C/c1nc2ccccc2s1` returned a melting point of 98 to 100 °C.

Compound `O=S(Cc1ccccc1)C1CCN(Cc2ccccc2)CC1` (racemic) registered a melting point of 123 °C.

In turn, `O=C(O)C1CCc2cc(O)ccc21` (configuration not stated) came in with a melting point of 137 to 138 °C.

With `CN(C)CCCC(N)=S`, the melting point was 77 °C.

In the case of `CCOC(=O)C1=C(C)NC(C)=C(C(=O)OC)C1c1cccc(C(F)(F)F)c1` (single isomer, unassigned; (-)), the melting point lay within 134 to 135 °C.

For `CCOc1nn(-c2ccc(C(F)(F)F)cn2)cc1CCOc1cccc(OC(C)(C)C(=O)O)c1`, the melting point fell in the range of 89 to 90 °C.

In the case of `Cc1cc(-c2nc3sc4ccccc4n3c2CC(=O)O)c(C)s1`, the melting point fell in the range of 249 to 250 °C.

Turning to `O=C1c2ccccc2C(Nc2ccccn2)N1CCCN1CC=C(c2ccccc2)CC1` (configuration not stated), the melting point stood at 153 °C.

In turn, `COC(=O)C(C(=O)OC)c1ccc(Br)cc1` returned a melting point of 77 to 79 °C.

Turning to `COc1ccc(CC(=O)O)cc1C12CC3CC(CC(C3)C1)C2`, the melting point fell in the range of 78 to 79 °C.

On to `CCOC(=O)C(=CNN(C)C)C(=O)c1cc(F)c(F)c(F)c1F`, for which the melting point was 81 °C.

For `COC(=O)CCCc1cc2nc(Cl)ccc2n1S(=O)(=O)c1ccc(OC)cc1`, the melting point was determined as 96 °C.

Compound `CCCCCC(=O)n1c(=O)n(CCCC)c(=O)n1C(=O)CCCCC` had a melting point of 88 to 89 °C.

As to `Cc1c(-n2ccnc2)n(CCOc2ccc(C(=O)O)cc2)c2ccccc12`, the melting point was above 300 °C.

Turning to `COc1ccc(N2CCN(c3c(C)c(C)c4c(c3C)C(Cc3ccccc3)C(C)(C)O4)CC2)cc1` (configuration not stated), the melting point was 146 to 148 °C.

`O=C(O)C1Cc2ccccc2N1S(=O)(=O)c1ccc(-c2cc(C(F)(F)F)ccc2Cl)cc1` (configuration not stated) displayed a melting point of 79 to 83 °C.

In the case of `O=C(O)c1cccc(-c2cccc(OCCc3cccc(F)c3)n2)c1`, the melting point was 142 to 143 °C.

For the compound `CN1CCc2c(Br)ccc([N+](=O)[O-])c2C1`, the melting point lay in the range of 85 to 87 °C.

Take `CC(C)c1n[nH]c2c(NCc3cccc(O)c3)ncnc12`: the melting point is 220 to 221 °C.

Compound `O=C(O)C1=Cc2cc(Cl)cc(-c3ccc(Cl)cc3)c2OC1C(F)(F)F` (configuration not stated) returned a melting point of 206 to 207 °C.

For the compound `Cc1cccc(C)c1NC(=O)CCCc1cccnc1`, the melting point lay in the range of 98 to 99 °C.

The compound `Cc1cc(-n2ccnc2)c2cccc(OCc3c(Cl)ccc(S(=O)(=O)N4CCC[C@H]4C(=O)NC4CC4)c3Cl)c2n1` displayed a melting point of 108 °C.

`N#Cc1ccc(-c2csc(NCCO)n2)cc1` displayed a melting point of 80 to 82 °C.

Compound `COc1ccc(-n2nc(C(F)(F)F)cc2-c2ccc(S(C)(=O)=O)cc2)cc1F` had a melting point of 178 to 180 °C.

In the case of `CN(C)C(=O)c1cc(-c2ccc(-c3ccco3)cc2)n(-c2ccc(S(C)(=O)=O)c(F)c2)n1`, the melting point was 167 to 168 °C.

`O=C(CBr)Nc1ccc(C(=O)O)cc1` registered a melting point of 241 to 243 °C.

Take `CSc1cccc(Oc2ncccc2C(=O)NCc2ccc(C(C)(C)O)cc2)c1`: the melting point was 107 to 109 °C.

As to `C[Si](C)(CCl)c1ccc(-c2ccccc2)cc1`, the melting point was in the range of 30 to 40 °C.

Regarding `CCOC(=O)/C=C/c1ccc(/C=C/c2c(OC)cc3c(c2OC)C(C)(C)CCC3(C)C)cc1`, the melting point lay in the range of 205 to 207 °C.

As to `CC(=O)NCCCc1ccc(Cl)c2occc12`, the melting point fell in the range of 61 to 62 °C.

With `CCOC(=O)c1cn(Cc2ccc(OCc3nc(-c4ccccc4)oc3C)cc2)nc1-c1cccs1`, the melting point was in the range of 113 to 114 °C.

`COC(=O)CCC(=O)c1ccc(N2CCOCC2)cc1`: the melting point was in the range of 120 to 121 °C.

Take `O=C(O)c1ccc(NC(O)C(=O)c2ccc(OCC3CCCCC3)cc2)cc1` (configuration not stated): the melting point is 188 to 190 °C.

`CNC1CCN(c2ncc3ncnc(Nc4ccc(F)c(Cl)c4)c3n2)CC1` displayed a melting point of 174 to 176 °C.

`COc1cccc2cc(C(=O)N[C@@H](CC(N)=O)C(=O)N[C@@H](Cc3ccccc3)[C@H](O)C(=O)N3C[C@@H](Cl)C[C@H]3C(=O)NC(C)(C)C)oc12` registered a melting point of 125 to 136 °C.

For the compound `OC1CSC(Oc2cncc(-c3ccc(F)c(Cl)c3)c2)C(O)C1O` (configuration not stated), the melting point lay in the range of 200 to 201 °C.

`Fc1c(Cl)cc(Br)c2ccccc12` came in with a melting point of 48 to 51 °C.

`O=S(=O)(c1ccc(Cl)cc1)C1(c2cccnc2Cl)CCCCC1` displayed a melting point of 129 to 131 °C.

In turn, `CC(C)(C)OC(=O)NC(C)(C)c1ccc(-c2nc(Nc3ccc(CCN4CCOCC4)cc3)ncc2C#N)cc1` registered a melting point of 200 °C.

For `O=C(Nc1ccccc1S(=O)(=O)N1CCCCC1)N[C@@H](Cc1ccc(Oc2nccc3cnccc23)cc1)C(=O)O`, the melting point was found to be 140 °C.

`COC(=O)c1nc(C)n2c1C(C)N=C(c1ccccc1)c1cc(Cl)ccc1-2` (configuration not stated): the melting point fell in the range of 217 to 221 °C.

Compound `Cc1cccc(CC(=O)N2C[C@@H]3C(=O)CCC(c4ccccc4)(c4ccccc4)[C@@H]3C2)c1` (racemic) yielded a melting point of 184 °C.

Compound `COc1ccc(CN(C)CCCc2ccc(NC(=O)c3cccc4c(=O)c5cccc(F)c5[nH]c34)c(C)c2)cc1OC` came in with a melting point of 132 °C.

With `CC1CC(=O)NN=C1c1ccc(N2CCOCC2)c([N+](=O)[O-])c1` (configuration not stated), the melting point fell in the range of 223 to 225 °C.

As to `N#Cc1cc([N+](=O)[O-])cc(C#N)c1N`, the melting point was 160 to 163 °C.

`O=C(O)c1cc([N+](=O)[O-])ccc1Nc1ccc(CCc2ccc(Cl)c(Cl)c2)cc1` gave a melting point of 214 to 217 °C.

`CC1Oc2ccc(CN3CCN(c4ccc(Cl)cn4)CC3)cc2NC1=O` (configuration not stated) gave a melting point of 197 to 198 °C.

Compound `CC(C)(c1ccc(Oc2ccc(N)cc2)cc1)c1cccc(C(C)(C)c2ccc(Oc3ccc(N)cc3)cc2)c1` gave a melting point of 180 °C.

For `COc1ccc(-c2cn(-c3nc(C)c(C(=O)NCc4ccccc4)s3)nn2)cc1`, the melting point is 168 to 171 °C.

For `COc1ccc(CCNS(=O)(=O)c2ccc([N+](=O)[O-])cc2)cc1`, the melting point is 92 to 93 °C.

In the case of `O=C(O)c1cccc(C(=O)NCc2ccc(F)c(-c3cccc(CO)c3)c2)c1`, the melting point was in the range of 169 to 171 °C.

Compound `CCc1cc(N)c(N)cc1CC` returned a melting point of 114 to 116 °C.

Regarding `OC1CC(O)C2CC1NN2` (configuration not stated), the melting point lay within 203 to 205 °C.

On to `O=Cc1ccc(OCc2csc(-c3ccccc3)n2)cc1`, for which the melting point lay in the range of 86 to 90 °C.

`COc1cc(OC)c(-c2cccs2)cc1/C=C/C(=O)c1ccc(S(=O)(=O)Nc2ccon2)cc1`: the melting point lay within 198 to 199 °C.

In the case of `COc1cc(NC(=O)NS(=O)(=O)c2ccccc2Cl)nc(OC)n1`, the melting point was 193 to 196 °C.

In the case of `O=C(Cn1cccc(OCc2ccccc2)c1=O)ON1C(=O)CCC1=O`, the melting point fell in the range of 187 to 188 °C.

`O=C(N=c1sc2cc(OC(F)(F)F)ccc2n1CCO)C(F)(F)F` gave a melting point of 144 °C.

`COC1(c2nc(Sc3ccc(/C(C)=N/O)cc3)cs2)CCOCC1` showed a melting point of 89 °C.

For `CC(C)c1nc(-c2ccccc2)nc(-c2ccc(F)cc2)c1C=C(Br)Br`, the melting point fell in the range of 95 to 98 °C.
